Results taken from patent publication US20240043883A1 (Board of Trustees of Michigan State University, priority 2021, published 2024).

What was measured:
Cg10062 (E114N) = test: In vitro 3-HP synthesis from ACA with cofactor recycling (Cg10062 (E114N), YdfG, PTDH), HPLC and 1H NMR; assay type: biochemical, Corynebacterium glutamicum; details: 100 mM ACA, 0.001-1 eq NADP+; hydration significantly faster at lower NADP+
From the text: (§1) This in vitro pathway developed in this study utilizes the novel Cg10062 (E114N) hydratase-only mutant with two other enzymes, YdfG and PTDH (FIG. 1). YdfG is a NADP^+-dependent 3-hydroxy acid dehydrogenase from E. coli and has previously been used for the in vivo production of 3-HP via the β-alanine pathway. […] For our system to be applied practically, the cost of cofactor is an important consideration. NADPH is an expensive cofactor and in order for the pathway to be an efficient, cost-effective pathway, the use of sub-stoichiometric amounts of co-factor was carried out. […] The formation of 3-HP in these assays were also confirmed using ^1H NMR (FIG. 4A-C).
(§2) All stocks solutions were prepared in 100 mM sodium phosphate pH 8.0. Ethylene glycol (20% w/v) was added to all enzyme stock solutions. […] Each reaction was carried out in duplicate at 25° C. with constant slow mixing on a rocking platform. Reactions were initiated by the addition of ACA. Samples from each reaction were quenched at indicated timepoints for analysis by HPLC and ^1H NMR, as described below.
All samples (100 μL) were quenched and by addition of 5 μL of 18 M sulfuric acid. The final volume was adjusted to 500 μL using 0.01 N sulfuric acid. The samples were prepared for HPLC using Whatman Mini-UniPrep® G2 syringeless filters with a glass microfiber membrane. […]

[1] = biological target: T1, Corynebacterium glutamicum Cg10062 variant E114N, SEQ ID NO: 62 (Corynebacterium glutamicum, UniProt Q8NU77, E115N); test: Effect of NADP(H) on ACA hydration during in vitro 3-HP synthesis with cofactor recycling; assay type: biochemical; details: 100 mM ACA conversion to 3-HP with 0.001-1 eq NADP^+, 25 °C, pH 8.0
T1 sequence (Q8NU77 with tags, fused parts or gaps E115N): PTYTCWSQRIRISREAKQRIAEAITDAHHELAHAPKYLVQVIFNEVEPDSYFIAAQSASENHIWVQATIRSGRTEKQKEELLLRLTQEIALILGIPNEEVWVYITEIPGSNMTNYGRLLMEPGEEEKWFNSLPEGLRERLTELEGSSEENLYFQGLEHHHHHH
From the text: as §1, §2
All samples (100 μL) were quenched and by addition of 5 μL of 18 M sulfuric acid. The final volume was adjusted to 500 μL using 0.01 N sulfuric acid. The samples were prepared for HPLC using Whatman Mini-UniPrep® G2 syringeless filters with a glass microfiber membrane.

[2] = 1H NMR characterization of YdfG-catalyzed reduction of MSA; assay type: biochemical; details: provided with NADPH as a cofactor
Experimental: The volume was adjusted to 680 μL with 100 mM sodium phosphate pH 8.0. The reaction was initiated with the addition of Cg10062 (E114D) (20 μL of 3 mg mL^−1 stock). ^1H NMR spectra were obtained after incubating the samples at 25° C. for 1 h. […] Resonances at δ 2.23; (t, 2H) and δ 3.58; (t, 2H) correspond to 3-hydroxypropionate.

pH dependence of MmsB = assay type: biochemical; details: in potassium phosphate; 25° C.
Experimental: The pH dependence of MmsB was measured using four different buffer systems: 100 mM potassium phosphate, 50 mM Tris-HCl, 50 mM bis-tris propane and 50 mM HEPES buffers for pH 6.5-8.0, 7.0-9.0, 7.0-9.0 and 7.0-8.0, respectively. The pH dependence was studied using the respective enzyme assay used for kinetic characterization as described previously. All pH studies were carried out in triplicate (1 mL) on a Shimadzu UV2600 spectrophotometer at 25° C. and checked to ensure that the final pH of each assay remained unchanged with the addition of assay components. All stock solutions were prepared in water and the assays were carried out in the respective buffers for each pH.

## NADP(H) [listing 1 of 2 here]
Cg10062 (E114N)
  effect on Cg10062 (E114N) (hydration of ACA to MSA): inhibitory effect

## NADP(H) [listing 2 of 2 here]
[1]
  inhibitory effect on Cg10062 (E114N): inhibitory effect

B1: YdfG: NADP+-dependent 3-hydroxy acid dehydrogenase from E. coli, SEQ ID NO: 75 (protein)
chain: MIVLVTGATAGFGECITRRFIQQGHKVIATGRRQERLQELKDELGDNLYIAQLDVRNRAAIEEMLASLPAEWCNIDILVNNAGLALGMEPAHKASVEDWETMIDTNNKGLVYMTRAVLPGMVERNHGHIINIGSTAGSWPYAGGNVYGATKAFVRQFSLNLRTDLHGTAVRVTDIEPGLVGGTEFSNVRFKGDDGKAEKTYQNTVALTPEDVSEAVWWVSTLPAHVNINTLEMMPVTQSYAGLNVHRQENLYFQGLEHHHHHH
modifications: YdfG from Escherichia coli plus TEV protease recognition site and C-terminal His6-tag
[2]
  conversion of malonate semialdehyde to 3-HP: complete conversion

B2: MmsB: 3-hydroxyisobutyrate dehydrogenase from P. putida KT2440, SEQ ID NO: 76 (protein)
chain: MRIAFIGLGNMGAPMARNLIKAGHQLNLFDLNKAVLAELAELGGQISPSPKDAAANSELVITMLPAAAHVRSVYLNEDGVLAGIRPGTPTVDCSTIDPQTARDVSKAAAAKGVDMGDAPVSGGTGGAAAGTLTFMVGASTELFASLKPVLEQMGRNIVHCGEVGTGQIAKICNNLLLGISMIGVSEAMALGNALGIDTKVLAGIINSSTGRCWSSDTYNPWPGIIETAPASRGYTGGFGAELMLKDLGLATEAARQAHQPVILGAVAQQLYQAMSLRGEGGKDFSAIVEGYRKKDENLYFQGLEHHHHHH
modifications: MmsB from Pseudomonas putida KT2440 plus TEV protease recognition site and C-terminal His6-tag
pH dependence of MmsB
  pH of highest activity: 7
